Data on 16 compounds can be found in patent US4689339A, “4-dihydroinden-2-yl-, 4-tetrahydronaphth-2-yl-, and 4-dihydrobenzofuran-2-ylimidazoles, useful to block α2 -adrenergic receptors” (Farmos Yhtyma oy, priority 1984, dated 1987).

In assay [1] the target is α1-receptors. As to the kind of experiment: α1-agonism in vitro, isolated anococcygeus muscle (rat). The assay is classed as biochemical. The note with it: negative logarithm of the molar concentration producing 50 percent of maximal contraction. The method, then: (§1) To obtain information also on the selectivity of the antagonist between α1 - and α2 -receptors, its ability to inhibit or stimulate α1 -receptors was determined by means of isolated anococcygeus muscle (rat). […] To determine α-antagonism, muscular contraction was induced by phenylephrine and the pA2 value of the studied compound was determined as above. α1 -agonist effect is presented as the pD2 value (negative logarithm of the molar concentration of the compound producing 50 percent of maximal contraction).

For assay [2], the target named is T1, α2-receptors of the central nervous system (Rattus norvegicus, UniProt P22909).
T1 construct: In anaesthetized rat, a standard dose of detomidine was administered intravenously; from tissue; host or cells: whole anaesthetized rat, in vivo (central nervous system)
T1 sequence (P22909 1-465): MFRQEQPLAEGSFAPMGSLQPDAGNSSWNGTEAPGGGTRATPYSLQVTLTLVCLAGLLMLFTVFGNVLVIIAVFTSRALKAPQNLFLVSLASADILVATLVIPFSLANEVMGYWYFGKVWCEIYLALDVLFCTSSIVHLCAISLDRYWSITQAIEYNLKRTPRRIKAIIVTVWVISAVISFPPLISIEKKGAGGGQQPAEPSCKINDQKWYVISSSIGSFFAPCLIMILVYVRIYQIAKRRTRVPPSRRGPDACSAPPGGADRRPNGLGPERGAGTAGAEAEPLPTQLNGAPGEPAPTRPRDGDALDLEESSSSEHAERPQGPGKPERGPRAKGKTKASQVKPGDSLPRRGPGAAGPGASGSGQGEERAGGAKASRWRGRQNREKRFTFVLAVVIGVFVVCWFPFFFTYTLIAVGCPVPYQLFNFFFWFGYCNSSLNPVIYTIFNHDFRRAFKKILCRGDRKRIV
As to the kind of experiment: α2-antagonism in vivo, reversal of detomidine-induced mydriasis in anaesthetized rat. The note with it: iv. As for the experimental part: The central α2 -blocking effect of the studied substances under in vivo conditions was studied using two methods. First, it is known that in the rat α2 -agonists induce dilatation of the pupil (mydriasis) which effect is transmitted via α2 -receptors of the central nervous system. In anaesthetized rat, a standard dose of detomidine was administered intravenously. Thereafter increasing doses of the studied antagonist were injected intravenously and the reversal of detomidine-induced mydriasis was followed. The ED50 value of the antagonist, i.e. the dose producing a 50 percent reversal, was determined.

For a further assay, the target named is T2, α2-receptors (Mus musculus, UniProt Q01338).
T2 construct: isolated, electrically stimulated mouse vas deferens preparation; from tissue; host or cells: mouse vas deferens
T2 sequence (Q01338 1-465): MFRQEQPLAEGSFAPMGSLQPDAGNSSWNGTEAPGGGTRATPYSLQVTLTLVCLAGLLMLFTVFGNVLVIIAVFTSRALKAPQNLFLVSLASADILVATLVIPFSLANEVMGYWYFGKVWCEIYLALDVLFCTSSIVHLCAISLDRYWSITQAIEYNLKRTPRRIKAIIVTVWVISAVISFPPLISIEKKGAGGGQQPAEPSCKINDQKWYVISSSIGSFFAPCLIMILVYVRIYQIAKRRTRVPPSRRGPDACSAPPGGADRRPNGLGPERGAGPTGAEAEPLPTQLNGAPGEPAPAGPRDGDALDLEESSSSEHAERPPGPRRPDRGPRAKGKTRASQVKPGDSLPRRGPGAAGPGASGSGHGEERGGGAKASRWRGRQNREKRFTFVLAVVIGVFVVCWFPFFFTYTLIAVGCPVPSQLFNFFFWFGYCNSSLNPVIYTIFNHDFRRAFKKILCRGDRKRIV
The assay can be described thus: α2-antagonism in vitro, isolated electrically stimulated mouse vas deferens (vs detomidine). The class given is biochemical. The method, then: α2 -antagonism was determined by means of isolated, electrically stimulated mouse vas deferens preparation (Marshall et al., Br. J. Pharmac. 62, 147, 151, 1978). In this model, α2 -agonist (detomidine) blocks electrically stimulated muscular contractions and the effect of the α2 -antagonist is seen by administering it prior to the agonist and by determining its pA2 value. Known α2 -antagonists like yohimbine and rauwolscine were used as reference substances.

The next assay relates to α2-receptor. As to the kind of experiment: α2-antagonism in the central nervous system, inhibition of detomidine induced potentiation of barbiturate sleeping time in mice. The assay is classed as in vivo, mouse. The conditions noted are these: detomidine 150 μg/kg ip. From the text: α2 -antagonism in the central nervous system was secondly studied by following the ability of the antagonist to inhibit detomidine induced sedation in the mouse. This was done by measuring the increase of barbiturate sleeping time induced by detomidine. This effect of detomidine is known to be induced through α2 -receptor activation. The antagonist can be studied by administering it prior to detomidine.

In assay [3] the target is α1-receptors. The assay can be described thus: α1-antagonism in vitro, isolated anococcygeus muscle (rat), contraction induced by phenylephrine. The assay is classed as biochemical. The method, then: as §1
The mark [4] stands for this setting: antagonist given prior to detomidine, read-out: α2-antagonism (pA2 vs detomidine) mouse vas deferens (converted).

Each structure is given as a SMILES string. Read-outs that look alike come from different tables or passages of the source.

Consider `Brc1ccc2c(c1)CC(c1cnc[nH]1)O2` (centres unmarked) [Compound III], for which, at α1-receptors [1], the “α1-agonism (pD2) rat anococcygeus” value is 4.5. The “ED50, 50 percent reversal of detomidine-induced mydriasis” value (shortened to “ED50, 50 percent reversal”) in assay [2] (rat, in vivo) worked out at 0.32 mg/kg. In addition, the Kb at α2-receptors (setting [4]) was 631 nM.
On to `c1ccc2c(c1)CC(c1cnc[nH]1)O2` (centres unmarked) [Compound II], for which the “Effect on detomidine induced potentiation of the barbiturate sleeping time (± percent of controls)” value (“Effect … (± percent of controls)” below) in the assay on α2-receptor (dose 0.1 mg/kg) is -5% of controls; in the assay on α2-receptor (dose 0.3 mg/kg), -30% of controls; in the assay on α2-receptor (dose 1 mg/kg), -60% of controls; in the assay on α2-receptor (dose 3 mg/kg), -70% of controls; with α2-receptor (dose 10 mg/kg), -85% of controls. For the same compound, the “α1-agonism (pD2) rat anococcygeus” value on α1-receptors [1] was determined as 5.5. The “ED50, 50 percent reversal” value in assay [2] (rat, in vivo) amounted to 0.07 mg/kg. In addition, the Kb at α2-receptors was 31.6 nM.
Take `Cc1ccc2c(c1)CC(c1cnc[nH]1)C2` (centres unmarked) [Compound IV]: the “α1-agonism (pD2) rat anococcygeus” value at α1-receptors [1] is 6.5. For the same compound, in assay [2] (rat, in vivo), the “ED50, 50 percent reversal” value stood at 0.02 mg/kg. Besides, the Kb at α2-receptors was 20 nM.
With `c1ccc2c(c1)CC(c1cnc[nH]1)C2` [Compound I], the “Effect … (± percent of controls)” value is given as -20% of controls in the assay with α2-receptor (dose 0.1 mg/kg), -60% of controls in the assay with α2-receptor (dose 0.3 mg/kg) and -100% of controls with α2-receptor (dose 1 mg/kg). In addition, the “α1-agonism (pD2) rat anococcygeus” value at α1-receptors [1] is reported as 6.5. Besides, the “ED50, 50 percent reversal” value in assay [2] (rat, in vivo) came out at 0.003 mg/kg. Also, on α2-receptors, the Kb is 1.58 nM.
`Cc1ccc2c(c1)C(C)C(c1cnc[nH]1)C2` (centres unmarked) [Compound VIII]: the “ED50, 50 percent reversal” value in assay [2] (rat, in vivo) amounted to 0.1 mg/kg. In addition, the Kb at α2-receptors is 25.1 nM. Also, the “α1-antagonism (pA2 vs phenylephrine) rat anococcygeus” value at α1-receptors [3] worked out at 5.9.
In the case of `Cc1cccc2c1CC(c1cnc[nH]1)C2C` (centres unmarked) [Compound VII], on α1-receptors [1], the “α1-agonism (pD2) rat anococcygeus” value is listed as 6.0. Besides, the “ED50, 50 percent reversal” value in assay [2] (rat, in vivo) amounted to 0.1 mg/kg. This compound showed a Kb on α2-receptors of 25.1 nM.
Regarding `CC1c2ccccc2CC1c1cnc[nH]1` (centres unmarked) [Compound VI], the “α1-agonism (pD2) rat anococcygeus” value on α1-receptors [1] was determined as 6.5. Also, in assay [2] (rat, in vivo), the “ED50, 50 percent reversal” value turned out to be 0.1 mg/kg. This compound gave a Kb at α2-receptors of 2 nM.
Regarding `CC1(c2cnc[nH]2)Cc2ccccc2C1` [Compound XII], on α1-receptors [1], the “α1-agonism (pD2) rat anococcygeus” value is on record as 5.5. In addition, the “ED50, 50 percent reversal” value in assay [2] (rat, in vivo) worked out at 0.003 mg/kg. The Kb at α2-receptors (setting [4]) was 7.94 nM.
Regarding `c1ccc2c(c1)CCC(c1cnc[nH]1)C2` (centres unmarked) [Compound XVIII], at α1-receptors [1], the “α1-agonism (pD2) rat anococcygeus” value was found to be 6.0. Further, the Kb on α2-receptors is 20 nM.
In the case of `CCC1(c2cnc[nH]2)Cc2ccc(C)cc2C1` (centres unmarked) [Compound XVII], the Kb at α2-receptors (setting [4]) was 251 nM.
For `CCC1(c2cnc[nH]2)Cc2ccccc2C1` [Compound XV], on α2-receptors, the Kb was 5.01 nM.
Consider `Cc1ccc(N(CC2=NCCN2)c2cccc(O)c2)cc1` [Phentolamine, reference compound], for which the “ED50, 50 percent reversal” value in assay [2] (anaesthetized rat, standard iv dose of detomidine) amounted to 1 mg/kg.
Consider `CNC[C@H](O)c1cccc(O)c1` [Phenylephrine, reference compound], for which the “α1-agonism (pD2) rat anococcygeus” value at α1-receptors [1] was 6.5.
For `COc1cc2nc(N3CCN(C(=O)c4ccco4)CC3)nc(N)c2cc1OC` [Prazosin], the “Effect … (± percent of controls)” value was 0% of controls in the assay on α2-receptor (dose 0.1 mg/kg); 0% of controls in the assay with α2-receptor (dose 0.3 mg/kg); 0% of controls in the assay with α2-receptor (dose 1 mg/kg); “+16% of controls” in the assay on α2-receptor (dose 3 mg/kg); “+18% of controls” in the assay with α2-receptor (dose 10 mg/kg).
Compound `COC(=O)[C@H]1[C@H]2C[C@H]3c4[nH]c5ccccc5c4CCN3C[C@H]2CC[C@@H]1O` [Rauwolscine, reference compound] gave a Kb on α2-receptors of 7.94 nM. Besides, the “α1-antagonism (pA2 vs phenylephrine) rat anococcygeus” value on α1-receptors [3] was determined as 6.3.
Consider `COC(=O)[C@@H]1[C@H]2C[C@H]3c4[nH]c5ccccc5c4CCN3C[C@@H]2CC[C@@H]1O` [Yohimbine], for which the “Effect … (± percent of controls)” value is on record as 0% of controls with α2-receptor (dose 0.1 mg/kg); -18% of controls in the assay on α2-receptor (dose 0.3 mg/kg); -64% of controls in the assay on α2-receptor (dose 1 mg/kg); -70% of controls in the assay on α2-receptor (dose 3 mg/kg); -100% of controls in the assay with α2-receptor (dose 10 mg/kg). Moreover, the “ED50, 50 percent reversal” value in assay [2] (rat, in vivo) was 0.2 mg/kg. The same compound gave a Kb at α2-receptors of 7.94 nM. The “α1-antagonism (pA2 vs phenylephrine) rat anococcygeus” value at α1-receptors [3] was determined as 6.6.
